The source made the active and inactive calls. No cut-off for these calls is given here.

The first experiment concerns the target Dystrophin (Mus musculus) (UniProt P11531). Nature of the experiment: Induction of read through activity at dystrophin in mouse H2K mdx cells assessed as increase in production of full length dystrophin protein at 0.07 to 2 uM by western blot assay. The format is cell-based. The settings on record: filed as activator, dose 0.07-2 µM.
Take `N=C(NCCCN1CCCCC1)Nc1nc2c(c(-c3ccoc3)n1)CCC2`: the outcome was Active.

The target is the same in another experiment. Nature of the experiment: Induction of read through activity at dystrophin in mouse H2K mdx cells assessed as increase in production of full length dystrophin protein at 0.01 to 100 uM by MSD assay. The format is cell-based. The following applies: filed as activator, dose 0.01-100 µM.
Take `Cc1nc(NC(=N)NCCCN2CCCC2)nc(-c2ccoc2)c1C`: the outcome was Active.

The target is the same in a further experiment. Nature of the experiment: Induction of read through activity at dystrophin in mouse H2K mdx cells assessed as increase in production of full length dystrophin protein at 0.6 to 20 uM by western blot assay. The following applies: filed as activator, dose 0.6-20 µM. The format is cell-based. For orientation: Immunoblotting shows a protein as a band on a membrane.
As for `Cc1nc(NC(=N)NCCCN2CCCC2)nc(-c2ccoc2)c1C`, the outcome was Active.

The next experiment relates to Premature termination codon. Nature of the experiment: Induction of read through activity at T-p53 R213X mutant premature termination codon in human HDQ-P1 cells assessed as increase in production of full length p53 protein by MSD assay.
Conditions: not given
The format is cell-based.
As for `Cc1nc(NC(=N)N(C)CCCN(C)C)nc2ccccc12`, the EC2 is > 30 µM. The same measure, in the same setting: next, `Cc1nc(NC(=N)NCC(=O)O)nc2cc(F)ccc12`: > 100 µM; `Cc1nc(NC(=N)NCCCN2CCCC2)nc(C)c1-c1ccoc1`: > 30 µM. Same read-out and setting: for `Cc1ccc2c(C)cc(NC(=N)N)nc2c1` the value was > 100 µM; for `Cc1ccc2cnc(NC(=N)N)nc2c1`, > 100 µM. Still for that read-out and setting: next, `Cc1nc(NC(=N)NCC(F)(F)CN(C)C)nc2ccccc12`: > 30 µM. Consider `Cc1nc(NC(N)=O)nc2cc(Cl)ccc12`, for which the EC2 is > 100 µM. Still for that read-out and setting: for `Cc1nc(NC(=N)Nc2cccc(N(C)C)c2)nc2cc(Cl)ccc12` the value was > 30 µM; for `Cc1nc(NS(N)(=O)=O)nc2cc(Cl)ccc12`, > 100 µM; for `Cc1nc(NC(=N)NCCCN(C)CC(=O)O)nc2ccccc12`, > 30 µM.

For `Cc1nc(NC(=N)NCCCN(C)CC(F)(F)F)nc2ccccc12`, the EC2 was > 30 µM. In the case of `Cc1nc(NC(=N)N)cc2ccccc12`, the EC2 is > 100 µM. The same measure, in the same setting: for `Cc1ccnc(NC(=N)NCCCN(C)C)n1` the value was > 30 µM; for `C/N=C(/NCCCN(C)C)Nc1nc(C)c2ccccc2n1`, > 30 µM. Regarding `Cc1nc(N)nc2ccccc12`, the EC2 was > 100 µM.

The same experiment, now with this note: filed as activator.
Turning to `Cc1nc(NC(=N)NCCO)nc2cc(F)ccc12`, the EC2 was 26 µM. On the same count and under the same terms, for `Cc1cccc2nc(NC(=N)N[C@@H]3CCN(C)C3)nc(C)c12` the value was 0.34 µM; for `Cc1nc(NC(=N)NCCCN2CCCC2)nc2cc(F)ccc12`, 1.5 µM. Take `Cc1nc(NC(=N)NCCCN(C)C)nc(-c2ccoc2)c1C`: the EC2 worked out at 1.3 µM. Still for that read-out and setting: for `Cc1nc(NC(=N)NCCCCN(C)C)nc2cc(F)ccc12` the value was 2.2 µM. Still for that read-out and setting: next, `Cc1nc(NC(=N)NCCCN2CCCC2)nc(-c2ccco2)c1C`: 0.56 µM; `Cc1cccc2nc(NC(=N)NCCCN3CCCC3)nc(C)c12`: 0.84 µM; `Cc1cccc2nc(NC(=N)NC3CCN(C)CC3)nc(C)c12`: 0.51 µM. On the same count and under the same terms, for `CN(C)CCCNC(=N)Nc1nc2c(c(-c3ccoc3)n1)CCCC2` the value was 1.1 µM; for `Cc1nc(NC(=N)NCCCN2CCCC2)nc(-c2ccoc2)c1Cl`, 0.77 µM. With `Cc1nc(NC(=N)NCCCN2CCCC2)nc(-c2ccoc2)c1C(F)(F)F`, the EC2 worked out at 15 µM.

As for `Cc1cccc2nc(NC(=N)N[C@H]3CCNC3)nc(C)c12`, the EC2 was determined as 2.2 µM.

Turning to `Cc1nc(N=C(N)N)nc2cc(Cl)ccc12`, the EC2 came to 6.3 µM. On the same count and under the same terms, for `Cc1nc(NC(=N)NCCCN2CCCC2)nc(-c2ccoc2)c1F` the value was 1.6 µM; for `Cc1nc(NC(=N)NCCN(C)C)nc2cc(F)ccc12`, 3.9 µM. Still for that read-out and setting: next, `COc1cccc(NC(=N)Nc2nc(C)c3ccccc3n2)c1`: 21 µM. For `Cc1nc(N=C(N)N)nc2cc(F)ccc12`, the EC2 came out at 13 µM. The same measure, in the same setting: for `Cc1cccc2nc(NC(=N)N[C@H]3CCN(C)C3)nc(C)c12` the value was 1 µM. On the same count and under the same terms, for `CN(C)CCCNC(=N)Nc1nc(-c2ccoc2)c2occc2n1` the value was 2 µM; for `Cc1nc(NC(=N)NCCCN2CCCCC2)nc2cc(F)ccc12`, 0.68 µM. The same measure, in the same setting: for `Cc1nc(NC(=N)NCCCN2CCCC2)nc(-c2cccs2)c1C` the value was 0.42 µM; for `CNCCCNC(=N)Nc1nc(C)c2ccc(F)cc2n1`, 2.5 µM. As for `Cc1ccc2c(C)nc(NC(=N)N)nc2c1`, the EC2 turned out to be 10 µM. Same read-out and setting: for `Cc1nc(NC(=N)NCCCN(C)CC2CCC2)nc2cc(F)ccc12` the value was 1.1 µM. Turning to `Cc1nc(NC(=N)N)nc2ccccc12`, the EC2 stood at 20 µM. For the molecule `Cc1nc(NC(=N)N[C@H](C)CCN(C)C)nc2ccccc12`, the EC2 is 2.5 µM.

`N=C(NCCCN1CCCCC1)Nc1nc2c(c(-c3ccoc3)n1)CCC2`: the EC2 was found to be 0.4 µM. Same read-out and setting: for `Cc1cc(-c2ccccc2)nc(NC(=N)NCCCN(C)C)n1` the value was 7.3 µM; for `Cc1cccc2nc(NC(=N)N[C@@H]3CCNC3)nc(C)c12`, 1.3 µM; for `CN(C)CCCNC(=N)Nc1nc2c(c(-c3ccoc3)n1)COC2`, 2.4 µM. On the same count and under the same terms, next, `Cc1nc(NC(=N)NCCCN2CCOCC2)nc2cc(F)ccc12`: 4.7 µM; `Cc1nc(NC(=N)NCCCN2CCCC2)nc2ccccc12`: 2.1 µM.

For `Cc1nc(NC(=N)NCCCN2CCN3CCCCC3C2)nc2cc(F)ccc12` (stereo not given), the EC2 turned out to be 3.5 µM. The same measure, in the same setting: for `Cc1nc(NC(=N)NCCCN2CCCC2)nc(-c2ccoc2)c1C` the value was 1.2 µM. Same read-out and setting: next, `CN1CCC(NC(=N)Nc2nc3c(c(-c4ccco4)n2)CCC3)CC1`: 0.12 µM; `N=C(NCCCN1CCC1)Nc1nc2c(c(-c3ccoc3)n1)CCC2`: 0.44 µM; `Cc1ccc2c(C)nc(NC(=N)NCCCN(C)C)nc2c1`: 1.1 µM.

`Cc1nc(NC(=N)NCCCCCN(C)C)nc2cc(F)ccc12`: the EC2 worked out at 6.6 µM.

Take `CN(C)CCCNC(=N)Nc1nc2c(c(-c3ccoc3)n1)CCC2`: the EC2 turned out to be 0.44 µM. The same measure, in the same setting: for `Cc1nc(NC(=N)NCCCN(C)C)nc2cc(F)ccc12` the value was 1.1 µM; for `Cc1nc(NC(=N)NCCCN(C)C)nc2cccc(F)c12`, 0.92 µM. The same measure, in the same setting: for `CN1CCC(NC(=N)Nc2nc3c(c(-c4ccoc4)n2)CCC3)CC1` the value was 0.22 µM; for `Cc1ccc2c(C)nc(NC(=N)NCCCN3CCCC3)nc2c1`, 1 µM. As for `Cc1cc(-c2ccoc2)nc(NC(=N)NCCCN(C)C)n1`, the EC2 was 3 µM. On the same count and under the same terms, for `CN[C@@H]1[C@@H](O)[C@@H](O[C@@H]2[C@@H](O)[C@H](O[C@H]3O[C@H]([C@H](C)O)[C@@H](O)[C@H](O)[C@H]3N)[C@@H](N)C[C@H]2N)OC[C@]1(C)O` the value was 8.5 µM; for `Cc1nc(NC(=N)NCCCN2CCC3(CCC3)C2)nc2cc(F)ccc12`, 2.3 µM. As for `CN(C)CCCNC(=N)Nc1ncc2ccccc2n1`, the EC2 is 7.5 µM. Take `Cc1nc(NC(=N)NC2CCCC(N(C)C)C2)nc2cc(F)ccc12` (stereo not given): the EC2 amounted to 5.5 µM. On the same count and under the same terms, next, `CCc1cc(C)nc(NC(=N)NCCCN(C)C)n1`: 17 µM; `Cc1nc(NC(=N)NCCCN)nc2cc(F)ccc12`: 9.8 µM; `CN(C)CCCNC(=N)Nc1nc2c(c(-c3ccoc3)n1)CCCCC2`: 3.5 µM. On the same count and under the same terms, for `Cc1nc(NC(=N)NCC2(CN(C)C)CCCC2)nc2cc(F)ccc12` the value was 16 µM; for `Cc1nc(NC(=N)NCCCc2ccccc2)nc2ccccc12`, 47 µM. Still for that read-out and setting: for `N=C(NCCCN1CCCC1)Nc1nc2c(c(-c3ccoc3)n1)CCC2` the value was 0.44 µM; for `Cc1nc(NC(=N)NCCCN(C)C)nc2cc(F)cc(F)c12`, 2.9 µM.

For `Cc1cccc2nc(NC(=N)NC3CCNCC3)nc(C)c12`, the EC2 worked out at 1.1 µM. `Cc1nc(NC(=N)NCCCN(C)C)nc2cc(Cl)ccc12`: the EC2 came out at 0.85 µM.

Turning to `CN(C)CCCNC(=N)Nc1nc(-c2ccoc2)c2ccsc2n1`, the EC2 was found to be 1.3 µM. On the same count and under the same terms, next, `Cc1nc(NC(=N)NCCCCCCN(C)C)nc2cc(F)ccc12`: 17 µM; `CN(C)CCCNC(=N)Nc1nc(-c2ccccc2)c2ccccc2n1`: 7.5 µM. On the same count and under the same terms, for `Cc1ccc2nc(NC(=N)NCCCN3CCCC3)nc(C)c2c1` the value was 2.3 µM; for `Cc1nc(NC(=N)NCCCN2CCCC2)nc(-c2ccoc2)c1Br`, 0.96 µM. Same read-out and setting: next, `CCNC(=N)Nc1nc(C)c2ccc(Cl)cc2n1`: 21 µM; `CNC(=N)Nc1nc(C)c2ccc(C)cc2n1`: 7.7 µM. Consider `Cc1nc(NC(=N)NCCCN2CCCC2)nc2c(C)cccc12`, for which the EC2 amounted to 0.55 µM.

Regarding `CCc1c(C)nc(NC(=N)NCCCN2CCCC2)nc1-c1ccoc1`, the EC2 turned out to be 3.2 µM. For the molecule `Cc1ccc2c(C)nc(NC(=N)NCCOCCO)nc2c1`, the EC2 is 48 µM. Still for that read-out and setting: next, `Cc1nc(NC(=N)NCCCN(C)[C@H](C)c2ccccc2)nc2ccccc12`: 1.8 µM; `CCN(CC)CCCNC(=N)Nc1nc(C)c2ccc(F)cc2n1`: 2.2 µM; `Cc1nc(NC(=N)NCCCN2CCCC2)nc(-c2ccsc2)c1C`: 1.4 µM. The same measure, in the same setting: for `CN(C)CCCNC(=N)Nc1nc2c(c(-c3ccoc3)n1)CCCCCC2` the value was 2.7 µM. The same measure, in the same setting: next, `COCCNC(=N)Nc1nc(C)c2ccc(C)cc2n1`: 12 µM; `CN(C)CCCNC(=N)Nc1nc(-c2ccoc2)c2sccc2n1`: 0.7 µM. For the molecule `Cc1nc(NC(=N)NCCCN(C)[C@@H](C)c2ccccc2)nc2ccccc12`, the EC2 came out at 2.2 µM. On the same count and under the same terms, for `Cc1nc(NC(=N)NCCCN(C)C)nc2ccccc12` the value was 1.7 µM.

In the next experiment the target is Dystrophin (Mus musculus) (UniProt P11531). Nature of the experiment: Induction of read through activity at dystrophin in mouse H2K mdx cells assessed as increase in production of full length dystrophin protein by measuring fold change at 0.01 to 100 uM by MSD assay. It counts as cell-based. The following applies: filed as activator, dose 0.01-100 µM.
Sequence of Dystrophin (Mus musculus) (P11531 whole entry): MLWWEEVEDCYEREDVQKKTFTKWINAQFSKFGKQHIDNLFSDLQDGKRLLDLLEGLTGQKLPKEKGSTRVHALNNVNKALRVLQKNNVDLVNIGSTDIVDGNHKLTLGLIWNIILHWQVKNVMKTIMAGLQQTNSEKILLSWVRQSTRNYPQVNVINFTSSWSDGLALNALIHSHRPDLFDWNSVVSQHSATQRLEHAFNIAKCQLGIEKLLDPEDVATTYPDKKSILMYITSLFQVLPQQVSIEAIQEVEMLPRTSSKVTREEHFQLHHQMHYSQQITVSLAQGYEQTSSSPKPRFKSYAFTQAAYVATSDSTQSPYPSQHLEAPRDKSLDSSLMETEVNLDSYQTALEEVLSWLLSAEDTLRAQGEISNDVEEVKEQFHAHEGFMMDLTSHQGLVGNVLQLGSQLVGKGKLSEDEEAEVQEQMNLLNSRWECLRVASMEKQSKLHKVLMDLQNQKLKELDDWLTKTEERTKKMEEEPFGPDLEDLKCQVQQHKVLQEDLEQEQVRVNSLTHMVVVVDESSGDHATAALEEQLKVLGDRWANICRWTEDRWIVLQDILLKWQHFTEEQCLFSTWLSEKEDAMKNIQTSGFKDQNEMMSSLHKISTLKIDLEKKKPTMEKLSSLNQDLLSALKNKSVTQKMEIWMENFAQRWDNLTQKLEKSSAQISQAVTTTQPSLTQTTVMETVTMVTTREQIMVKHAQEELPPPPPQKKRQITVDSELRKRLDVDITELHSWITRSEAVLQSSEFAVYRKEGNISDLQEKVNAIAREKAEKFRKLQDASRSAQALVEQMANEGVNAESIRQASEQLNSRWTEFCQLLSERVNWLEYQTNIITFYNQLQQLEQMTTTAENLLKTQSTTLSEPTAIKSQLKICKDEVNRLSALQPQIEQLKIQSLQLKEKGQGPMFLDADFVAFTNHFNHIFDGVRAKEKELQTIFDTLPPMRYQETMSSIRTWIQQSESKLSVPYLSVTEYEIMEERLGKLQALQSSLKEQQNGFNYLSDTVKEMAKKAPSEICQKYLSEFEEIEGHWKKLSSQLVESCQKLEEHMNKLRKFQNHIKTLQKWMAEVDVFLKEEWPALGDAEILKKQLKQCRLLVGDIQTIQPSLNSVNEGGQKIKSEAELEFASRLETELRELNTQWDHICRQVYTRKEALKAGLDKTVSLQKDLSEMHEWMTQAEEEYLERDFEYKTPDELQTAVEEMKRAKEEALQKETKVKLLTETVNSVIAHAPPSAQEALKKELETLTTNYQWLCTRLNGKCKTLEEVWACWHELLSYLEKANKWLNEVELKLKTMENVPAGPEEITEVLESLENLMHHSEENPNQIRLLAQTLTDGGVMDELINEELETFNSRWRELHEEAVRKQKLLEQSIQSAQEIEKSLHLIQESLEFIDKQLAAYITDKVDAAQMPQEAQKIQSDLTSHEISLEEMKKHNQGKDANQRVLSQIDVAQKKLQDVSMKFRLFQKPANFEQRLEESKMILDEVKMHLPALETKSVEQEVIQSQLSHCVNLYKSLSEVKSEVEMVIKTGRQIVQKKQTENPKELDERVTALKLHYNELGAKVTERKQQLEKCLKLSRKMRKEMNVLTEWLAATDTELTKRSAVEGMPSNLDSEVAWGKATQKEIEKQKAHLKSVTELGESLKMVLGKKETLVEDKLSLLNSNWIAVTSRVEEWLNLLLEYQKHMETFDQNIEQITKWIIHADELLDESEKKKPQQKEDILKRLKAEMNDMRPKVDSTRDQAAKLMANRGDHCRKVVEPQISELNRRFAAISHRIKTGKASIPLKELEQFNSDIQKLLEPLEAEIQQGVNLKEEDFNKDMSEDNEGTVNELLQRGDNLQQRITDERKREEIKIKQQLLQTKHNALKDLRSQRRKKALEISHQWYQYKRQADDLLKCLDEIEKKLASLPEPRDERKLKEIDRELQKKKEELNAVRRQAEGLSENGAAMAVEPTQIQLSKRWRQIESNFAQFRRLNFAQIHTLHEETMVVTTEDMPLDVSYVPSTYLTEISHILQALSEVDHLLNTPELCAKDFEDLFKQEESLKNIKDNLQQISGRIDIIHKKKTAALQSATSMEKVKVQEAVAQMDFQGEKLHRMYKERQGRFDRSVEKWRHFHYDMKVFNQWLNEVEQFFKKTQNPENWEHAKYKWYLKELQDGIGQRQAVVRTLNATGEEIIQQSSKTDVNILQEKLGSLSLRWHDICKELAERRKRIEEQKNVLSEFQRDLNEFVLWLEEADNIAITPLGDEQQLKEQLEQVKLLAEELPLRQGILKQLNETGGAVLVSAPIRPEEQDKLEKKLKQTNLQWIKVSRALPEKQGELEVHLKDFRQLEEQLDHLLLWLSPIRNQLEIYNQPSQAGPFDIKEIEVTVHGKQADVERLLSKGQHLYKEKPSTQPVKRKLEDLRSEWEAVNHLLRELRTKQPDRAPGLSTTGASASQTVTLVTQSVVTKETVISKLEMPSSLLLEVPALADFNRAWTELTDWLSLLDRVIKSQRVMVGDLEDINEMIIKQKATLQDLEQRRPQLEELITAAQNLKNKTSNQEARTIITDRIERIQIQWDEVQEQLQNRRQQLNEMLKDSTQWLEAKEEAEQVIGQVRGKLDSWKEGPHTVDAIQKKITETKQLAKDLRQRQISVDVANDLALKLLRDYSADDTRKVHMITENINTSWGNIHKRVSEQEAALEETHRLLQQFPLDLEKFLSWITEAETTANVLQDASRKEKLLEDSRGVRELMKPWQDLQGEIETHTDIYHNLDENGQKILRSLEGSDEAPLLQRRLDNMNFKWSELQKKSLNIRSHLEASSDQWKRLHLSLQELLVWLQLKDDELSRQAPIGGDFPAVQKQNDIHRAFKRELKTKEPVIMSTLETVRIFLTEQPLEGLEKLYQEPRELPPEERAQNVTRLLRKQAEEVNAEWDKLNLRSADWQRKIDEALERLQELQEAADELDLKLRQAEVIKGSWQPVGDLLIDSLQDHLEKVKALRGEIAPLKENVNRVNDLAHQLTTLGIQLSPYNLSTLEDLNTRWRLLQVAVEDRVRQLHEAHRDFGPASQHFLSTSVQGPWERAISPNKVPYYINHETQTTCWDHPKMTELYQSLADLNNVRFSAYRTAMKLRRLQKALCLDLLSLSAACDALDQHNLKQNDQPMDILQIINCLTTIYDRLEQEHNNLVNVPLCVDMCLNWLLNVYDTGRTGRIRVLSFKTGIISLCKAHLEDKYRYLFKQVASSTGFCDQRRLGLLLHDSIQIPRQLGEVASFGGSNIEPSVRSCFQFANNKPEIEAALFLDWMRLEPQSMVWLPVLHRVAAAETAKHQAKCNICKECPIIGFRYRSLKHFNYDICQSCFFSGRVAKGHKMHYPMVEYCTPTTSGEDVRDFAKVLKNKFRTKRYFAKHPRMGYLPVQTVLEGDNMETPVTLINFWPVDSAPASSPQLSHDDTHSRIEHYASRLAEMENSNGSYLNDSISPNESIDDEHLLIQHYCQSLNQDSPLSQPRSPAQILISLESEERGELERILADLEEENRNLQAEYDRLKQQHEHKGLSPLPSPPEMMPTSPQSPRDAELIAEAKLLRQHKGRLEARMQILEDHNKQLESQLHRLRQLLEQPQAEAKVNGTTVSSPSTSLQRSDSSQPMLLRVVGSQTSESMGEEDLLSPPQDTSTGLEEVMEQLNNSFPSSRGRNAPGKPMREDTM
Turning to `N=C(NCCCN1CCCCC1)Nc1nc2c(c(-c3ccoc3)n1)CCC2`, the fold change (FC) is 3.

The next experiment has the same target. Nature of the experiment: Induction of read through activity at dystrophin in mouse H2K mdx cells assessed as increase in production of full length dystrophin protein at <2 uM by MSD assay. The format is cell-based. The following applies: filed as activator.
Take `N=C(NCCCN1CCCCC1)Nc1nc2c(c(-c3ccoc3)n1)CCC2`: the result was Active.

The record behind these values is ChEMBL document CHEMBL5214943, “Guanidino quinazolines and pyrimidines promote readthrough of premature termination codons in cells with native nonsense mutations” (Bioorg Med Chem Lett, 2022).
